Data taken from ChEMBL document CHEMBL1135070, “Synthesis of a magnosalin derivative, 4-(3,4,5-trimethoxyphenyl)-6-(2,4,5-trimethoxyphenyl)-2-diethylaminopyrimidine, and the anti-angiogenic and anti-rheumatic effect on mice by oral administration” (Bioorg Med Chem Lett, 2002).
pIC50: −log10 of the molar value.

Key:
[1] = Anti-proliferative activity of KB cells from head and neck cancer cell line induced by fetal bovine serum (FBS) at 0.1 (uM) concentrations for [3H]- thymidine incorporation; assay type: functional, Homo sapiens, Cancer cell lines
[2] = tested on: HUVEC; experiment: Anti-proliferative effect on human umbilical vein endothelial cells (HUVEC) induced by basic fibroblast growth factor (bFGF); assay type: functional, cell-based
[3] = tested on: HUVEC; experiment: Anti-proliferative effect on HUVEC induced by vascular endothelial growth factor (VEGF)at 0.3 uM concentration by measuring [3H]thymidine incorporation; assay type: functional, Homo sapiens
[4] = Anti-proliferative activity of KB cells from head and neck cancer cell line induced by fetal bovine serum (FBS) at 1 (uM) concentration for % inhibition; assay type: functional, Homo sapiens, Cancer cell lines
[5] = tested on: HUVEC; experiment: Anti-proliferative effect on human umbilical vein endothelial cells (HUVEC) induced by basic fibroblast growth factor (bFGF) at 0.3 (uM) concentration; assay type: functional
[6] = tested on: HUVEC; experiment: Anti-proliferative effect on human umbilical vein endothelial cells (HUVEC) induced by basic fibroblast growth factor (bFGF) at 1 (uM) concentration; assay type: functional
[7] = tested on: HUVEC; experiment: Anti-proliferative effect on human umbilical vein endothelial cells (HUVEC) induced by vascular endothelial growth factor (VEGF) at 1 (uM) concentration; assay type: functional
[8] = tested on: HUVEC; experiment: Anti-proliferative effect on human umbilical vein endothelial cells (HUVEC) induced by vascular endothelial growth factor (VEGF); assay type: functional, cell-based
[9] = tested on: HUVEC; experiment: Anti-proliferative effect on human umbilical vein endothelial cells (HUVEC) induced by fetal bovine serum (FBS); assay type: functional, cell-based
[10] = tested on: HUVEC; experiment: Anti-proliferative effect on human umbilical vein endothelial cells (HUVEC) induced by vascular endothelial growth factor (VEGF) at 0.1 (uM) concentration; assay type: functional
[11] = tested on: HUVEC; experiment: Anti-proliferative effect on human umbilical vein endothelial cells (HUVEC) induced by fetal bovine serum (FBS) at 0.3 (uM) concentration; assay type: functional
[12] = Anti-proliferative activity of KB cells from head and neck cancer cell line induced by fetal bovine serum (FBS) at 1 (uM) concentrations for [3H]- thymidine incorporation; assay type: functional, Homo sapiens, Cancer cell lines
[13] = species on record: Homo sapiens; experiment: Anti-proliferative activity on normal human dermal fibroblasts (NHDF) induced by fetal bovine serum (FBS) at 1 uM concentration; assay type: functional
[14] = tested on: HUVEC; experiment: Anti-proliferative effect on human umbilical vein endothelial cells (HUVEC) induced by basic fibroblast growth factor (bFGF) at 0.1 (uM) concentration; assay type: functional
[15] = tested on: HUVEC; experiment: Anti-proliferative effect on HUVEC induced by fetal bovine serum (FBS) at 0.1 uM concentration by measuring [3H]thymidine incorporation; assay type: functional, Homo sapiens
[16] = Anti-proliferative activity of KB cells from head and neck cancer cell line induced by fetal bovine serum (FBS) at 0.3 (uM) concentrations for [3H]- thymidine incorporation; assay type: functional, Homo sapiens, Cancer cell lines
[17] = tested on: HUVEC; experiment: Anti-proliferative effect on HUVEC induced by basic fibroblast growth factor (bFGF)at 1 uM concentration by measuring [3H]thymidine incorporation; assay type: functional, Homo sapiens
[18] = tested on: HUVEC; experiment: Anti-proliferative effect on human umbilical vein endothelial cells (HUVEC) induced by endothelial cell growth supplement (ECGS) at 0.3 (uM) concentration; assay type: functional
[19] = tested on: HUVEC; experiment: Anti-proliferative effect on HUVEC induced by vascular endothelial growth factor (VEGF)at 0.1 uM concentration by measuring [3H]thymidine incorporation; assay type: functional, Homo sapiens
[20] = tested on: HUVEC; experiment: Anti-proliferative effect on HUVEC induced by basic fibroblast growth factor (bFGF)at 0 uM concentration by measuring [3H]thymidine incorporation; assay type: functional, Homo sapiens
[21] = species on record: Homo sapiens; experiment: Anti-proliferative activity on normal human dermal fibroblasts (NHDF) induced by fetal bovine serum (FBS) at 0.1 uM concentration; assay type: functional
[22] = species on record: Homo sapiens; experiment: Anti-proliferative activity on NHDF induced by fetal bovine serum (FBS) at 0.3 uM concentration by measuring [3H]thymidine incorporation; assay type: functional
[23] = tested on: HUVEC; experiment: Anti-proliferative effect on human umbilical vein endothelial cells (HUVEC) induced by ECGS at 0.1 uM concentration by measuring [3H]thymidine incorporation; assay type: functional
[24] = tested on: HUVEC; experiment: Anti-proliferative effect on human umbilical vein endothelial cells (HUVEC) induced by ECGS at 0 uM concentration by measuring [3H]thymidine incorporation; assay type: functional
[25] = species on record: Homo sapiens; experiment: Anti-proliferative activity on NHDF induced by fetal bovine serum (FBS) at 0.1 uM concentration by measuring [3H]thymidine incorporation; assay type: functional
[26] = Anti-proliferative activity of KB cells from head and neck cancer cell line induced by fetal bovine serum (FBS) at 0 uM concentrations for [3H]thymidine incorporation; assay type: functional, Homo sapiens, Cancer cell lines
[27] = tested on: HUVEC; experiment: Anti-proliferative effect on human umbilical vein endothelial cells (HUVEC) induced by endothelial cell growth supplement (ECGS) at 1 (uM) concentration; assay type: functional
[28] = tested on: HUVEC; experiment: Anti-proliferative effect on human umbilical vein endothelial cells (HUVEC) induced by ECGS at 1 uM concentration by measuring [3H]thymidine incorporation; assay type: functional
[29] = tested on: HUVEC; experiment: Anti-proliferative effect on HUVEC induced by basic fibroblast growth factor (bFGF)at 0.1 uM concentration by measuring [3H]thymidine incorporation; assay type: functional, Homo sapiens
[30] = tested on: HUVEC; experiment: Anti-proliferative effect on HUVEC induced by fetal bovine serum (FBS) at 0 uM concentration by measuring [3H]thymidine incorporation; assay type: functional, Homo sapiens
[31] = tested on: HUVEC; experiment: Anti-proliferative effect on HUVEC induced by basic fibroblast growth factor (bFGF)at 0.3 uM concentration by measuring [3H]thymidine incorporation; assay type: functional, Homo sapiens
[32] = tested on: HUVEC; experiment: Anti-proliferative effect on HUVEC induced by vascular endothelial growth factor (VEGF)at 1 uM concentration by measuring [3H]thymidine incorporation; assay type: functional, Homo sapiens
[33] = tested on: HUVEC; experiment: Anti-proliferative effect on human umbilical vein endothelial cells (HUVEC) induced by endothelial cell growth supplement (ECGS); assay type: functional, cell-based
[34] = Anti-proliferative activity of KB cells from head and neck cancer cell line induced by fetal bovine serum (FBS) at 0.1 (uM) concentrations for % inhibition; assay type: functional, Homo sapiens, Cancer cell lines
[35] = Anti-proliferative activity of KB cells from head and neck cancer cell line induced by fetal bovine serum (FBS) at 0.3 (uM) concentrations for % inhibition; assay type: functional, Homo sapiens, Cancer cell lines
[36] = tested on: HUVEC; experiment: Anti-proliferative effect on HUVEC induced by fetal bovine serum (FBS) at 1 uM concentration by measuring [3H]-thymidine incorporation; assay type: functional, Homo sapiens
[37] = tested on: HUVEC; experiment: Anti-proliferative effect on HUVEC induced by fetal bovine serum (FBS) at 0.3 uM concentration by measuring [3H]thymidine incorporation; assay type: functional, Homo sapiens
[38] = species on record: Homo sapiens; experiment: Anti-proliferative activity of normal human dermal fibroblasts (NHDF) induced by fetal bovine serum (FBS) at 0.3 uM concentration; assay type: functional
[39] = tested on: HUVEC; experiment: Anti-proliferative effect on human umbilical vein endothelial cells (HUVEC) induced by ECGS at 0.3 uM concentration by measuring [3H]thymidine incorporation; assay type: functional
[40] = tested on: HUVEC; experiment: Anti-proliferative effect on HUVEC induced by vascular endothelial growth factor (VEGF)at 0 uM concentration by measuring [3H]thymidine incorporation; assay type: functional, Homo sapiens
[41] = species on record: Homo sapiens; experiment: Anti-proliferative activity on NHDF induced by fetal bovine serum (FBS) at 1 uM concentration by measuring [3H]thymidine incorporation; assay type: functional
[42] = tested on: HUVEC; experiment: Anti-proliferative effect on human umbilical vein endothelial cells (HUVEC) induced by vascular endothelial growth factor (VEGF) at 0.3 (uM) concentration; assay type: functional
[43] = tested on: HUVEC; experiment: Anti-proliferative effect on human umbilical vein endothelial cells (HUVEC) induced by fetal bovine serum (FBS) at 0.1 (uM) concentration; assay type: functional
[44] = tested on: Mus musculus; experiment: Antirheumatic effect was determined in mice after oral administration of a dose of 30 mg/kg/day at day 14; assay type: functional; conditions: 336 h
[45] = species on record: Homo sapiens; experiment: Anti-proliferative activity on NHDF induced by fetal bovine serum (FBS) at 0 uM concentration by measuring [3H]thymidine incorporation; assay type: functional
[46] = tested on: HUVEC; experiment: Anti-proliferative effect on human umbilical vein endothelial cells (HUVEC) induced by fetal bovine serum (FBS) at 1 uM concentration; assay type: functional
[47] = tested on: Mus musculus; experiment: Antirheumatic effect was determined in mice after oral administration of a dose of 1 mg/kg/day at day 14; assay type: functional; conditions: 336 h
[48] = tested on: Mus musculus; experiment: Antirheumatic effect was determined in mice after combined treatment of TAS-202 (30 mg/kg/day) and indomethacin (1 mg/kg/day) at day 14; assay type: functional

Which Activity [1] does the source give for CCN(CC)c1nc(-c2cc(OC)c(OC)c(OC)c2)cc(-c2cc(OC)c(OC)cc2OC)n1 here?
The Activity was 18961.2 c.p.m.

And the pIC50 [2]?
Its pIC50 is 6.25.

What about the Activity [3] of the same compound?
The Activity was 1263.7 c.p.m.

And the Inhibition [4]?
Its Inhibition is 29.3%.

What about the Inhibition [5] of the same compound?
The Inhibition was 30.7%.

What about the Inhibition [6] of the same compound?
Its Inhibition is 70.3%.

And the Inhibition [7]?
Its Inhibition is 78.4%.

What about the pIC50 [8] of the same compound?
Its pIC50 is 6.40.

What about the pIC50 [9] of the same compound?
The pIC50 was 6.70.

And the Inhibition [10]?
The Inhibition was 10.4%.

And the Inhibition [11]?
Its Inhibition is 74.1%.

And the Activity [12]?
The Activity was 13366.5 c.p.m.

And the inhibition at 1 µM [13]?
The inhibition at 1 µM was -14.3%.

And the Inhibition [14]?
Its Inhibition is 33.6%.

What about the Activity [15] of the same compound?
Its Activity is 437 c.p.m.

What about the Activity [16] of the same compound?
The Activity was 15784.2 c.p.m.

What about the Activity [17] of the same compound?
The Activity was 2969.9 c.p.m.

What about the Inhibition [18] of the same compound?
The Inhibition was 64.6%.

What about the Activity [19] of the same compound?
The Activity was 1861.3 c.p.m.

And the Activity [20]?
Its Activity is 9998.4 c.p.m.

What about the inhibition at 0.1 µM [21] of the same compound?
The inhibition at 0.1 µM was -2.2%.

What about the Activity [22] of the same compound?
Its Activity is 2209.9 c.p.m.

What about the Activity [23] of the same compound?
The Activity was 1634.5 c.p.m.

And the inhibition at 0.1 µM [23]?
Its inhibition at 0.1 µM is 41.8%.

And the Activity [24]?
The Activity was 2810.3 c.p.m.

What about the Activity [25] of the same compound?
Its Activity is 1907.7 c.p.m.

What about the Activity [26] of the same compound?
The Activity was 18896 c.p.m.

What about the Inhibition [27] of the same compound?
Its Inhibition is 87.2%.

And the Activity [28]?
The Activity was 359 c.p.m.

And the Activity [29]?
The Activity was 6638.9 c.p.m.

And the Activity [30]?
The Activity was 595.9 c.p.m.

And the Activity [31]?
The Activity was 6927.6 c.p.m.

What about the Activity [32] of the same compound?
The Activity was 448 c.p.m.

And the pIC50 [33]?
The pIC50 was 6.83.

What about the Inhibition [34] of the same compound?
The Inhibition was -0.3%.

And the Inhibition [35]?
The Inhibition was 16.5%.

And the Activity [36]?
The Activity was 122.8 c.p.m.

What about the Activity [37] of the same compound?
The Activity was 154.2 c.p.m.

And the inhibition at 0.3 µM [38]?
The inhibition at 0.3 µM was -18.4%.

What about the Activity [39] of the same compound?
The Activity was 994.2 c.p.m.

And the Activity [40]?
The Activity was 2077.3 c.p.m.

What about the Activity [41] of the same compound?
The Activity was 2133.2 c.p.m.

What about the Inhibition [42] of the same compound?
Its Inhibition is 39.2%.

What about the Inhibition [43] of the same compound?
Its Inhibition is 26.7%.

What about the inhibition in vivo at 30 mg/kg/day [44] of the same compound?
Its inhibition in vivo at 30 mg/kg/day is 32.4%.

What about the Activity [45] of the same compound?
Its Activity is 1867.1 c.p.m.

What about the inhibition at 1 µM [46] of the same compound?
The inhibition at 1 µM was 79.4%.

Which inhibition in vivo at 1 mg/kg/day [47] does the source give for COc1ccc2c(c1)c(CC(=O)O)c(C)n2C(=O)c1ccc(Cl)cc1 [INDOMETHACIN] here?
Its inhibition in vivo at 1 mg/kg/day is 22.2%.

What about the Inhibition [48] of the same compound?
The Inhibition was 75%.
